Measured values as given in ChEMBL document CHEMBL1201862, “PubChem BioAssay data set” (2004).
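Cells were grown in 96-well plates and exposed to each compound for 48 hours at five concentrations; endpoints were interpolated linearly between bracketing concentrations, or set to the highest concentration if not reached. At the GI50, growth is halved.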 The source made the active and inactive calls. No stated cut-off is given here; in the data, active = GI50 up to about 1.1 µM and inactive = higher.

Key:
Assay in all cases: DTP human tumour cell line panel, 48 h
HOP-92 = system: HOP-92
KM12 = system: KM12
CAKI-1 = system: CAKI-1
COLO 205 = system: COLO 205
SNB-75 = system: SNB-75
M14 = system: M14
HT-29 = system: HT-29
IGROV-1 = system: IGROV-1
HOP-62 = system: HOP-62
NCI-H522 = system: NCI-H522
SF-295 = system: SF-295
HCC 2998 = system: HCC 2998
LOX IMVI = system: LOX IMVI
SK-MEL-2 = system: SK-MEL-2

Compound | GI50 (HOP-92) | GI50 (KM12) | GI50 (CAKI-1) | GI50 (COLO 205) | GI50 (SNB-75) | GI50 (M14) | GI50 (HT-29) | GI50 (IGROV-1) | GI50 (HOP-62) | GI50 (NCI-H522) | GI50 (SF-295) | GI50 (HCC 2998) | GI50 (LOX IMVI) | GI50 (SK-MEL-2)
O=C(/C=C/c1ccccc1)c1ccc(Cl)cc1Cl | 35.9 µM (inactive) | 15.9 µM (inactive) | 25.9 µM (inactive) | 20.5 µM (inactive) | 30.8 µM (inactive) | 23.2 µM (inactive) | 16.8 µM (inactive) | 18.5 µM (inactive) | 94.4 µM (inactive) | 13.4 µM (inactive) | 19.9 µM (inactive) | 23.3 µM (inactive) | – | –
C/C=C/C=N/N(c1nnc(-c2ccccc2)c(-c2ccccc2)n1)S(=O)(=O)c1ccc(C)cc1 | 16.2 µM (inactive) | 9.06 µM (inactive) | 16.9 µM (inactive) | 17.1 µM (inactive) | 3.61 µM (inactive) | 4.69 µM (inactive) | 11.7 µM (inactive) | 13.1 µM (inactive) | – | 4.75 µM (inactive) | 11 µM (inactive) | 17 µM (inactive) | 3.6 µM (inactive) | 11.4 µM (inactive)
O=C(/C=C/c1ccccc1O)c1cccnc1 | – | > 100 µM (inactive) | > 100 µM (inactive) | – | > 100 µM (inactive) | > 100 µM (inactive) | > 100 µM (inactive) | > 100 µM (inactive) | > 100 µM (inactive) | > 100 µM (inactive) | > 100 µM (inactive) | > 100 µM (inactive) | > 100 µM (inactive) | > 100 µM (inactive)
C(/C=C/N1CCCC1)=C\c1nc(N2CCCC2)c2ccccc2n1 | – | 17.1 µM (inactive) | 19.7 µM (inactive) | 14.4 µM (inactive) | 16.6 µM (inactive) | 18 µM (inactive) | 20.7 µM (inactive) | 21.6 µM (inactive) | 19.5 µM (inactive) | – | 20.4 µM (inactive) | 17.4 µM (inactive) | 17.5 µM (inactive) | 22.1 µM (inactive)
COc1ccc(C=O)cc1O[Si](C)(C)C(C)(C)C | 25.7 µM (inactive) | > 100 µM (inactive) | > 100 µM (inactive) | > 100 µM (inactive) | 61.5 µM (inactive) | > 100 µM (inactive) | > 100 µM (inactive) | > 100 µM (inactive) | > 100 µM (inactive) | – | > 100 µM (inactive) | > 100 µM (inactive) | > 100 µM (inactive) | > 100 µM (inactive)
O=C1O[C@H](C(Cl)(Cl)Cl)N2CCCC12 (stereo not given in full) | > 100 µM (inactive) | > 100 µM (inactive) | > 100 µM (inactive) | > 100 µM (inactive) | > 100 µM (inactive) | > 100 µM (inactive) | > 100 µM (inactive) | > 100 µM (inactive) | > 100 µM (inactive) | > 100 µM (inactive) | > 100 µM (inactive) | – | > 100 µM (inactive) | > 100 µM (inactive)
CC(C)=C1CCC(CN(C)C)C1=O (stereo not given) | 20.9 µM (inactive) | 29.7 µM (inactive) | – | 24.1 µM (inactive) | 0.234 µM (active) | 14.4 µM (inactive) | 20.6 µM (inactive) | > 100 µM (inactive) | – | 0.196 µM (active) | > 100 µM (inactive) | 19.1 µM (inactive) | – | 26.3 µM (inactive)
Cc1cc(NS(=O)(=O)c2ccc(NC(=O)c3ccc(Cl)c4c(Nc5ccc(S(=O)(=O)Nc6cc(C)on6)cc5)c5ccccc5nc34)cc2)no1 | 19.8 µM (inactive) | 19.7 µM (inactive) | 15.9 µM (inactive) | 22.4 µM (inactive) | 6.46 µM (inactive) | 22.2 µM (inactive) | 19.8 µM (inactive) | 21.5 µM (inactive) | 23.3 µM (inactive) | 11.8 µM (inactive) | 23.8 µM (inactive) | – | 18.5 µM (inactive) | 20.9 µM (inactive)
Cn1c2c(c3ccccc31)CCN(CCCCN1CCN(c3cccc(Cl)c3)CC1)C2=O | 15.2 µM (inactive) | – | 27.2 µM (inactive) | 2.91 µM (inactive) | 0.0975 µM (active) | 3.3 µM (inactive) | 2.79 µM (inactive) | 15.9 µM (inactive) | 15.2 µM (inactive) | 12.3 µM (inactive) | 16.1 µM (inactive) | – | – | 16.7 µM (inactive)
Oc1nc(S)nc2c1CCCN2 | > 100 µM (inactive) | > 100 µM (inactive) | > 100 µM (inactive) | > 100 µM (inactive) | > 100 µM (inactive) | > 100 µM (inactive) | > 100 µM (inactive) | > 100 µM (inactive) | > 100 µM (inactive) | > 100 µM (inactive) | > 100 µM (inactive) | – | > 100 µM (inactive) | > 100 µM (inactive)
COc1ccc(C2(Cl)C(Cl)(C(F)(F)F)C2(Cl)C(F)(F)F)cc1 (stereo not given) | 13.9 µM (inactive) | 14 µM (inactive) | 16 µM (inactive) | 15.9 µM (inactive) | 14.9 µM (inactive) | 11.9 µM (inactive) | 14.4 µM (inactive) | 16.5 µM (inactive) | 18.4 µM (inactive) | – | 14.8 µM (inactive) | 16.3 µM (inactive) | 6.68 µM (inactive) | 14.2 µM (inactive)
CC(=O)Oc1c(Br)ccc2cc(C(Br)Br)c(C(=O)c3ccccc3)nc12 | – | 19.6 µM (inactive) | 3.78 µM (inactive) | 24.4 µM (inactive) | 20.5 µM (inactive) | 21.2 µM (inactive) | 19.2 µM (inactive) | 29.1 µM (inactive) | 19.1 µM (inactive) | 4.21 µM (inactive) | 18.7 µM (inactive) | 17.9 µM (inactive) | 23.9 µM (inactive) | 20.7 µM (inactive)
CCCCC1CC(c2cccc([N+](=O)[O-])c2)=NO1 (stereo not given) | > 100 µM (inactive) | > 100 µM (inactive) | 63.5 µM (inactive) | > 100 µM (inactive) | > 100 µM (inactive) | > 100 µM (inactive) | 28.6 µM (inactive) | > 100 µM (inactive) | > 100 µM (inactive) | 29.5 µM (inactive) | 97.7 µM (inactive) | 58.5 µM (inactive) | – | > 100 µM (inactive)
CCOC(=O)c1c(C(F)(F)F)oc2c1ccc1nc3nonc3nc12 | 13.2 µM (inactive) | 19.3 µM (inactive) | 14 µM (inactive) | 24.2 µM (inactive) | 13.2 µM (inactive) | 9.14 µM (inactive) | 15.5 µM (inactive) | 23.2 µM (inactive) | 13.8 µM (inactive) | 15.1 µM (inactive) | 27 µM (inactive) | 24.9 µM (inactive) | 16.2 µM (inactive) | 19.3 µM (inactive)
CCOc1ccc(/N=N/c2ccc3oc(=O)c(C(=O)Nc4ccc(OC)cc4)cc3c2)cc1 | – | 30.8 µM (inactive) | 11 µM (inactive) | 47.9 µM (inactive) | 33.7 µM (inactive) | > 10 µM (inactive) | 42.5 µM (inactive) | 23.5 µM (inactive) | 21.9 µM (inactive) | 21.8 µM (inactive) | 31.2 µM (inactive) | 10.8 µM (inactive) | 11.4 µM (inactive) | 18.6 µM (inactive)
CCc1cccc(C)c1NC(=O)CC1Sc2ccccc2NC1=O (stereo not given) | 32.8 µM (inactive) | 34.9 µM (inactive) | 60.5 µM (inactive) | 53.7 µM (inactive) | 10.7 µM (inactive) | 39.4 µM (inactive) | – | 88.7 µM (inactive) | 15.1 µM (inactive) | 20 µM (inactive) | 95.7 µM (inactive) | 22.4 µM (inactive) | 48.8 µM (inactive) | 33.6 µM (inactive)
C1CC2=C(C1)C1=S(S2)SC2=C1CCC2 | > 100 µM (inactive) | > 100 µM (inactive) | > 100 µM (inactive) | > 100 µM (inactive) | > 100 µM (inactive) | > 100 µM (inactive) | > 100 µM (inactive) | > 100 µM (inactive) | – | > 100 µM (inactive) | > 100 µM (inactive) | > 100 µM (inactive) | > 100 µM (inactive) | > 100 µM (inactive)
C1OCC2S[C@@H]3COCO[C@@H]3C2O1 (stereo not given in full) | – | > 100 µM (inactive) | > 100 µM (inactive) | > 100 µM (inactive) | > 100 µM (inactive) | > 100 µM (inactive) | > 100 µM (inactive) | – | > 100 µM (inactive) | > 100 µM (inactive) | > 100 µM (inactive) | > 100 µM (inactive) | > 100 µM (inactive) | –
CN(C(=O)C1CC1)C1C2CN3CCC(O2)C13 (stereo not given) | > 100 µM (inactive) | > 100 µM (inactive) | > 100 µM (inactive) | > 100 µM (inactive) | > 100 µM (inactive) | > 100 µM (inactive) | > 100 µM (inactive) | > 100 µM (inactive) | > 100 µM (inactive) | > 100 µM (inactive) | > 100 µM (inactive) | > 100 µM (inactive) | > 100 µM (inactive) | > 100 µM (inactive)
CC(C)=CCCc1c(C)ccc2c1C(=O)C(=O)C(C(C)C)=C2 | 3.26 µM (inactive) | > 22 µM (inactive) | 4.16 µM (inactive) | 7.24 µM (inactive) | 9.62 µM (inactive) | 4.24 µM (inactive) | 7.11 µM (inactive) | 9.84 µM (inactive) | – | 3.4 µM (inactive) | > 22 µM (inactive) | > 22 µM (inactive) | – | 4.1 µM (inactive)
COc1ccc2c(c1)CC1c3c(cc4c(c3-2)OCO4)CCN1C (stereo not given) | 18.1 µM (inactive) | 30.9 µM (inactive) | 23.9 µM (inactive) | 15.8 µM (inactive) | 22.6 µM (inactive) | 22.8 µM (inactive) | 27.7 µM (inactive) | 31.7 µM (inactive) | 30.1 µM (inactive) | 15.6 µM (inactive) | 21.6 µM (inactive) | 41.1 µM (inactive) | – | 26.5 µM (inactive)
